Measurements: patent publication US20240228482A1, “COMPOUNDS, COMPOSITIONS AND METHODS OF TREATING CANCER” (HOTSPOT THERAPEUTICS, INC., priority 2021, published 2024)

Molecular target: T1, CBL-B (Homo sapiens, UniProt Q13191)
T1 construct: GST
Assay: CBL-B TR-FRET IC50 screening (E1/E2 ubiquitination, Biotin-Ubiquitin, Anti GST-Tb donor / Streptavidin-d2 acceptor)
Assay type: biochemical
Conditions: CBL-B 10 nM final; 11-point titration from 100 uM; binned A-F; read-out: CBL-B TR-FRET activity IC50

T1 sequence (Q13191 whole entry): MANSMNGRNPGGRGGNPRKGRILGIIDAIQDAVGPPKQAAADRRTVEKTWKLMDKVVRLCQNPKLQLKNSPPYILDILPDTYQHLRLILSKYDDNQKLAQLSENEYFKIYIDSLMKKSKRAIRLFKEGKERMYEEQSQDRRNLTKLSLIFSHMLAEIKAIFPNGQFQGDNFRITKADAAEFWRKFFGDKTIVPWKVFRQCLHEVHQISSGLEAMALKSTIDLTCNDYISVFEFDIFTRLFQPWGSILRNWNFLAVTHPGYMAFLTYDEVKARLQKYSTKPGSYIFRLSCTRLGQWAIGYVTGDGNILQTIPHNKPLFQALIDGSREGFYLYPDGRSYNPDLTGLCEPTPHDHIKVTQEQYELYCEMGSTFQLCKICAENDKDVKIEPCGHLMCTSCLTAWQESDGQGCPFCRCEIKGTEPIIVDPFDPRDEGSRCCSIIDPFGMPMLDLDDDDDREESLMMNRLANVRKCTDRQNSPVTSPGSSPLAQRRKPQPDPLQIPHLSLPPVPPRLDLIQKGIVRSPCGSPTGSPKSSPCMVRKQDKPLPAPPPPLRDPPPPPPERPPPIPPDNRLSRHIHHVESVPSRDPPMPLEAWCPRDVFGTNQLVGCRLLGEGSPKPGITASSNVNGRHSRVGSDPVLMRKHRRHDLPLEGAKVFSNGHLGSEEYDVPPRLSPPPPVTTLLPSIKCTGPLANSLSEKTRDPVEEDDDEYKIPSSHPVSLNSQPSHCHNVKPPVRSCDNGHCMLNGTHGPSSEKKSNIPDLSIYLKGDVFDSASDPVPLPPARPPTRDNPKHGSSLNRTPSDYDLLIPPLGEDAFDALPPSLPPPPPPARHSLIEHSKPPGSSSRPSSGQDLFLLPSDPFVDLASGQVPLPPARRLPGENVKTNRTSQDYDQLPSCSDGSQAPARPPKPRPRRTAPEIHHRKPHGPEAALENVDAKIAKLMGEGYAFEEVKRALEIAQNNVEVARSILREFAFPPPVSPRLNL

Row | IC50 [nM] | SMILES
1 | < 100 | C[C@H]1CCCN(Cc2cc(C(F)(F)F)c3cn(-c4cccc([C@H](c5nncs5)C5CCC5)c4)c(=O)n3c2)C1 (single isomer, unassigned) [Compound 202]
2 | 301 to 1000 | C[C@H]1CCCN(Cc2cc(C(F)(F)F)c3cn(-c4cccc([C@@H](c5nncs5)C5CCC5)c4)c(=O)n3c2)C1 (single isomer, unassigned) [Compound 203]
3 | < 100 | C[C@@H]1CN(Cc2cc(C(F)(F)F)c3cn(-c4cccc([C@]5(Cc6nncn6C)C[C@H](C#N)C5)c4)c(=O)n3c2)CCC1(F)F (single isomer, unassigned) [Compound 204]
4 | < 100 | C[C@H]1CN(Cc2cc(C(F)(F)F)c3cn(-c4cccc([C@]5(Cc6nncn6C)C[C@H](C#N)C5)c4)c(=O)n3c2)CCC1(F)F (single isomer, unassigned) [Compound 205]
5 | < 100 | C[C@@H]1CN(Cc2cc(C(F)(F)F)c3cn(-c4cccc([C@]5(c6nncn6C)C[C@@H](C)C5)c4)c(=O)n3c2)CCO1 (single isomer, unassigned) [Compound 213]
6 | < 100 | [2H]C([2H])([2H])n1cnnc1[C@]1(c2cccc(-n3cc4c(C(F)(F)F)cc(CN5CCC[C@H](C)C5)cn4c3=O)c2)C[C@@H](C)C1 (single isomer, unassigned) [Compound 214]
7 | < 100 | Cn1cnnc1[C@]1(c2cccc(-n3cc4c(C(F)(F)F)cc(CN5CCC6(CC6)C5)cn4c3=O)c2)C[C@@H](C)C1 (single isomer, unassigned) [Compound 215]
8 | < 100 | Cn1cnnc1[C@]1(c2cccc(-n3cc4c(C(F)(F)F)cc(CN5CCC(C)(F)CC5)cn4c3=O)c2)C[C@@H](C)C1 (single isomer, unassigned) [Compound 217]
9 | < 100 | Cn1cnnc1[C@]1(c2cccc(-n3cc4c(C(F)(F)F)cc(CN5CCC6(CC6)C5)cn4c3=O)c2)C[C@H](C)C1 (single isomer, unassigned) [Compound 222]
10 | < 100 | C[C@H]1CCCN(Cc2cc(C(F)(F)F)c3cn(-c4cc([C@@H](c5nncn5C)C5CCC5)cc(C(F)(F)F)c4)c(=O)n3c2)C1 (single isomer, unassigned) [Compound 223]
11 | > 10000 | C[C@H]1CCCN(Cc2cc(C(F)(F)F)c3cn(-c4cc([C@H](c5nncn5C)C5CCC5)cc(C(F)(F)F)c4)c(=O)n3c2)C1 (single isomer, unassigned) [Compound 224]
12 | < 100 | Cn1cnnc1[C@]1(c2cccc(-n3cc4c(C(F)(F)F)cc(CN5CC[C@H](F)C5)cn4c3=O)c2)C[C@H](C)C1 (single isomer, unassigned) [Compound 226]
13 | < 100 | Cn1cnnc1[C@]1(c2cccc(-n3cc4c(C(F)(F)F)cc(CN5CCC(C)(F)CC5)cn4c3=O)c2)C[C@H](C)C1 (single isomer, unassigned) [Compound 227]
14 | 3000 to 10000 | C[C@@H]1CN([C@H](C)c2cc(C(F)(F)F)c3cn(-c4cccc([C@@H](c5nncn5C)C5CCC5)c4)c(=O)n3c2)CCO1 (single isomer, unassigned) [Compound 231]
15 | 301 to 1000 | C[C@@H]1CN([C@@H](C)c2cc(C(F)(F)F)c3cn(-c4cccc([C@@H](c5nncn5C)C5CCC5)c4)c(=O)n3c2)CCO1 (single isomer, unassigned) [Compound 232]
16 | < 100 | C[C@@H]1CN([C@H](C)c2cc(C(F)(F)F)c3cn(-c4cccc([C@H](c5nncn5C)C5CCC5)c4)c(=O)n3c2)CCO1 (single isomer, unassigned) [Compound 233]
17 | < 100 | C[C@@H]1CN([C@@H](C)c2cc(C(F)(F)F)c3cn(-c4cccc([C@H](c5nncn5C)C5CCC5)c4)c(=O)n3c2)CCO1 (single isomer, unassigned) [Compound 234]
18 | 1000 to 3000 | COC1CCN(Cc2cc(C(F)(F)F)c3cn(-c4cccc([C@@H](c5nncn5C)C5CCC5)c4)c(=O)n3c2)CC1 (single isomer, unassigned) [Compound 235]
19 | < 100 | Cn1cnnc1[C@]1(c2cccc(-n3cc4c(C(F)(F)F)cc(CN5CC6(CC6)C5)cn4c3=O)c2)C[C@H](C)C1 (single isomer, unassigned) [Compound 236]
20 | < 100 | Cn1cnnc1[C@]1(c2cccc(-n3cc4c(C(F)(F)F)cc(CN5CCC(F)CC5)cn4c3=O)c2)C[C@H](C)C1 (single isomer, unassigned) [Compound 237]
21 | > 10000 | C[C@H]1CCCN(Cc2cc(C(F)(F)F)c3cn(-c4cc(F)cc([C@@H](c5nncn5C)C5CCC5)c4)c(=O)n3c2)C1 (single isomer, unassigned) [Compound 242]
22 | < 100 | C[C@H]1CCCN(Cc2cc(C(F)(F)F)c3cn(-c4cc(F)cc([C@H](c5nncn5C)C5CCC5)c4)c(=O)n3c2)C1 (single isomer, unassigned) [Compound 243]
23 | > 10000 | C[C@H]1CCCN([C@@H](c2cc(C(F)(F)F)c3cn(-c4cccc([C@@H](c5nncn5C)C5CCC5)c4)c(=O)n3c2)C(F)(F)F)C1 (single isomer, unassigned) [Compound 256]
24 | > 10000 | C[C@H]1CCCN([C@H](c2cc(C(F)(F)F)c3cn(-c4cccc([C@@H](c5nncn5C)C5CCC5)c4)c(=O)n3c2)C(F)(F)F)C1 (single isomer, unassigned) [Compound 257]

Row | IC50 [nM] | SMILES
25 | < 100 | CO[C@H]1CCCCN(Cc2cc(C(F)(F)F)c3cn(-c4cccc([C@H](c5nncn5C)C5CCC5)c4)c(=O)n3c2)C1 (single isomer, unassigned) [Compound 261]
26 | < 100 | CO[C@@H]1CCCCN(Cc2cc(C(F)(F)F)c3cn(-c4cccc([C@H](c5nncn5C)C5CCC5)c4)c(=O)n3c2)C1 (single isomer, unassigned) [Compound 262]
27 | < 100 | CO[C@H]1CCCN(Cc2cc(C(F)(F)F)c3cn(-c4cccc([C@H](c5nncn5C)C5CCC5)c4)c(=O)n3c2)CC1 (single isomer, unassigned) [Compound 263]
28 | < 100 | CO[C@@H]1CCCN(Cc2cc(C(F)(F)F)c3cn(-c4cccc([C@H](c5nncn5C)C5CCC5)c4)c(=O)n3c2)CC1 (single isomer, unassigned) [Compound 264]
29 | < 100 | Cn1cnnc1[C@@H](c1cccc(-n2cc3c(C(F)(F)F)cc(CN4CCC[C@H](C(F)(F)F)C4)cn3c2=O)c1)C1CCC1 (single isomer, unassigned) [Compound 271]
30 | < 100 | Cn1cnnc1[C@@H](c1cccc(-n2cc3c(C(F)(F)F)cc(CN4CCC[C@@H](C(F)(F)F)C4)cn3c2=O)c1)C1CCC1 (single isomer, unassigned) [Compound 272]
31 | < 100 | C[C@H]1CCCCN(Cc2cc(C(F)(F)F)c3cn(-c4cccc([C@H](c5nncn5C)C5CCC5)c4)c(=O)n3c2)C1 (single isomer, unassigned) [Compound 273]
32 | < 100 | C[C@@H]1CCCCN(Cc2cc(C(F)(F)F)c3cn(-c4cccc([C@H](c5nncn5C)C5CCC5)c4)c(=O)n3c2)C1 (single isomer, unassigned) [Compound 274]
33 | > 10000 | Cc1scnc1[C@H](c1cccc(-n2cc3c(C(F)(F)F)cc(CN4CCC[C@H](C)C4)cn3c2=O)c1)C1CCC1 (single isomer, unassigned) [Compound 282]
34 | > 10000 | Cc1scnc1[C@@H](c1cccc(-n2cc3c(C(F)(F)F)cc(CN4CCC[C@H](C)C4)cn3c2=O)c1)C1CCC1 (single isomer, unassigned) [Compound 283]
35 | 100 to 300 | Cn1cnnc1[C@@H](c1cccc(-n2cc3c(C(F)(F)F)cc(CN4CC[C@@H](C(F)(F)F)C4)cn3c2=O)c1)C1CCC1 (single isomer, unassigned) [Compound 285]
36 | < 100 | C[C@H]1CCCN(Cc2cc(C(F)(F)F)c3cn(-c4cc(C#N)cc([C@@H](c5nncn5C)C5CCC5)c4)c(=O)n3c2)C1 (single isomer, unassigned) [Compound 288]
37 | > 10000 | C[C@H]1CCCN(Cc2cc(C(F)(F)F)c3cn(-c4cc(C#N)cc([C@H](c5nncn5C)C5CCC5)c4)c(=O)n3c2)C1 (single isomer, unassigned) [Compound 289]
38 | 100 to 300 | C[C@H]1CCCN(Cc2cc(C(F)(F)F)c3cn(-c4cccc([C@]5(c6nncs6)C[C@@H](C)C5)c4)c(=O)n3c2)C1 (single isomer, unassigned) [Compound 292]
39 | 100 to 300 | C[C@H]1CCCN(Cc2cc(C(F)(F)F)c3cn(-c4cccc([C@]5(c6nncs6)C[C@H](C)C5)c4)c(=O)n3c2)C1 (single isomer, unassigned) [Compound 293]
40 | 100 to 300 | C[C@H]1CCCN(Cc2cc(C(F)(F)F)c3cn(-c4cccc([C@]5(c6nncn6C)C[C@H](O)C5)c4)c(=O)n3c2)C1 (single isomer, unassigned) [Compound 301]
41 | 301 to 1000 | Cc1conc1[C@H](c1cccc(-n2cc3c(C(F)(F)F)cc(CN4CCC[C@H](C)C4)cn3c2=O)c1)C1CCC1 (single isomer, unassigned) [Compound 302]
42 | > 10000 | Cc1conc1[C@@H](c1cccc(-n2cc3c(C(F)(F)F)cc(CN4CCC[C@H](C)C4)cn3c2=O)c1)C1CCC1 (single isomer, unassigned) [Compound 303]
43 | > 10000 | C[C@H]1CCCN(Cc2cc(C(F)(F)F)c3cn(-c4cccc([C@@H](c5nccs5)C5CCC5)c4)c(=O)n3c2)C1 (single isomer, unassigned) [Compound 305]
44 | > 10000 | C[C@H]1CCCN(Cc2cc(C(F)(F)F)c3cn(-c4cccc([C@H](c5nccs5)C5CCC5)c4)c(=O)n3c2)C1 (single isomer, unassigned) [Compound 306]
45 | < 100 | Cn1cnnc1[C@]1(c2cccc(-n3cc4c(C(F)(F)F)cc(CN5CCc6ncsc6C5)cn4c3=O)c2)C[C@H](C)C1 (single isomer, unassigned) [Compound 308]
46 | 100 to 300 | Cn1cnnc1[C@]1(c2cccc(-n3cc4c(C(F)(F)F)cc(CN5CCc6ncsc6C5)cn4c3=O)c2)C[C@@H](C)C1 (single isomer, unassigned) [Compound 309]
47 | < 100 | CO[C@H]1C[C@](c2cccc(-n3cc4c(C(F)(F)F)cc(CN5CCC[C@H](C)C5)cn4c3=O)c2)(c2nncn2C)C1 (single isomer, unassigned) [Compound 319]
48 | > 10000 | COCCn1cc(C)c([C@@H](c2cccc(-n3cc4c(C(F)(F)F)cc(CN5CCC[C@H](C)C5)cn4c3=O)c2)C2CCC2)n1 (single isomer, unassigned) [Compound 335]
